According to US4708956A, “3-position halogenated cephalosporin analogs and pharmaceutical compositions” (Kyowa Hakko Kogyo Co., Ltd., priority 1986, dated 1987):
Converted amounts (≈) assume the structure as drawn. Where two headings read alike, the source gives them in different places.

Experiments:
[1] = tested on: Gram-positive and Gram-negative bacteria; conditions: J. Am. Chem. Soc., 96, 7584 (1974); J. Med. Chem., 20, 551 (1977); cited from earlier work
[2] = tested on: Escherichia coli Juhl; experiment: Heart Infusion Agar Dilution Method, minimum inhibitory concentration; assay type: cell-based
Experimental: (§1) The activity is determined by the Heart Infusion Agar Dilution Method (pH 7.2).

[3] = tested on: Proteus mirabilis 1287; experiment: as above; assay type: cell-based; conditions: pH 7.2
Experimental: as §1

[4] = tested on: Proteus morganii KY4298; experiment: as above; assay type: cell-based; conditions: Morganella morganii
Experimental: as §1

[5] = tested on: Klebsiella pneumoniae Y-60; experiment: as above; assay type: cell-based
Experimental: as §1

[6] = tested on: Serratia marcescens T-55; experiment: as above; assay type: cell-based
Experimental: as §1

[7] = tested on: Staphylococcus aureus Smith; experiment: as above; assay type: cell-based; conditions: pH 7.2
Experimental: as §1

[8] = tested on: Staphylococcus epidermidis; experiment: as above; assay type: cell-based; conditions: pH 7.2
Experimental: as §1

[9] = tested on: Proteus rettgeri KY4289; experiment: as above; assay type: cell-based; conditions: Providencia rettgeri
Experimental: as §1

[10] = tested on: Staphylococcus aureus 209-p; experiment: as above; assay type: cell-based
Experimental: as §1

[11] = tested on: Proteus vulgaris 6897; experiment: as above; assay type: cell-based; conditions: pH 7.2
Experimental: as §1

[12] = tested on: Pseudomonas putida F264; experiment: as above; assay type: cell-based
Experimental: as §1

[13] = tested on: Klebsiella pneumoniae 8045; experiment: as above; assay type: cell-based; conditions: pH 7.2
Experimental: as §1

[14] = tested on: Escherichia coli NIHJC-2; experiment: as above; assay type: cell-based
Experimental: as §1

[15] = tested on: Gram-positive and Gram-negative bacteria; experiment: antibacterial activity (general statements); assay type: cell-based; conditions: general or comparative statement
[16] = Escherichia coli Juhl, Heart Infusion Agar Dilution Method, pH 7.2, read-out: Minimum Inhibitory Concentration
[17] = Proteus morganii KY4298, Heart Infusion Agar Dilution Method, pH 7.2, read-out: Minimum Inhibitory Concentration
[18] = Y60, Klebsiella pneumoniae Y-60, Heart Infusion Agar Dilution Method, pH 7.2, read-out: Minimum Inhibitory Concentration
[19] = T55, Serratia marcescens T-55, Heart Infusion Agar Dilution Method, pH 7.2, read-out: Minimum Inhibitory Concentration
[20] = Proteus rettgeri KY4289, Heart Infusion Agar Dilution Method, pH 7.2, read-out: Minimum Inhibitory Concentration
[21] = Staphylococcus aureus 209-p, Heart Infusion Agar Dilution Method, pH 7.2, read-out: Minimum Inhibitory Concentration
[22] = Pseudomonas putida F264, Heart Infusion Agar Dilution Method, pH 7.2, read-out: Minimum Inhibitory Concentration
[23] = NIHJC2, Escherichia coli NIHJC-2, Heart Infusion Agar Dilution Method, pH 7.2, read-out: Minimum Inhibitory Concentration

| Compound | MIC [2, 16] [µg/mL] | MIC [3] [µg/mL] | MIC [4, 17] [µg/mL] | MIC [5, 18] [µg/mL] | MIC [6, 19] [µg/mL] | MIC [7] [µg/mL] | MIC [8] [µg/mL] | MIC [9, 20] [µg/mL] | MIC [10, 21] [µg/mL] | MIC [11] [µg/mL] | MIC [12, 22] [µg/mL] | MIC [13] [µg/mL] | MIC [14, 23] [µg/mL] | further results |
| --- | --- | --- | --- | --- | --- | --- | --- | --- | --- | --- | --- | --- | --- | --- |
| CC(=O)OCC1=C(C(=O)O)N2C(=O)C(NC(=O)Cc3cccs3)C2CC1 (racemic) [(i)-1-carbacephalotin] |  |  |  |  |  |  |  |  |  |  |  |  |  | antibacterial activity, in words (literature) [1]: having antibacterial activity |
| CO/N=C(\C(=O)N[C@@H]1C(=O)N2C(C(=O)O)=C(Cl)CC[C@H]12)c1ccco1 (relative stereo) [c, cis-7-[2-(2-furyl)-2-syn-methoxyiminoacetamido]-3-chloro-1-azabicyclo[4,2,0]oct-2-en-8-on-2-carboxylic acid] | 50 (≈ 136 µM) | 12.5 (≈ 34 µM) | > 100 | 50 (≈ 136 µM) | > 100 | 12.5 (≈ 34 µM) | 25 (≈ 68 µM) | 25 (≈ 68 µM) | 6.25 (≈ 17 µM) | 25 (≈ 68 µM) | > 100 | 12.5 (≈ 34 µM) | 50 (≈ 136 µM) |  |
| CO/N=C(\C(=O)N[C@@H]1C(=O)N2C(C(=O)O)=C(Cl)CC[C@H]12)c1csc(N)n1 (relative stereo) [d, (±)-cis-7-[2-(2-aminothiazole-4-yl)-2-syn-methoxyiminoacetamido]-3-chloro-1-azabicyclo[4,2,0]oct-2en-8-on-2-carboxylic acid] | 0.4 (≈ 1 µM) | 0.1 (≈ 0.25 µM) | 0.4 (≈ 1 µM) | 0.78 (≈ 1.95 µM) | 1.56 (≈ 3.9 µM) | 50 (≈ 125 µM) | 50 (≈ 125 µM) | 0.1 (≈ 0.25 µM) | 50 (≈ 125 µM) | 0.4 (≈ 1 µM) | 3.12 (≈ 7.8 µM) | ≤ 0.05 | 0.78 (≈ 1.95 µM) |  |
| N[C@@H](C(=O)N[C@@H]1C(=O)N2C(C(=O)O)=C(Cl)CC[C@H]12)c1ccccc1 [a, (6R, 7S) 7-(R)-phenylglycinamido-3-chloro-1-azabicyclo[4,2,0]oct-2-en-8-on-2-carboxylic acid] |  |  | > 100 |  |  |  |  | 100 (≈ 286 µM) |  | 100 (≈ 286 µM) | 100 (≈ 286 µM) |  |  | antibacterial (antimicrobial) activity, in words [15]: greater antimicrobial activity |
| CCN1CCN(C(=O)N[C@@H](C(=O)N[C@@H]2C(=O)N3C(C(=O)O)=C(Cl)CC[C@H]23)c2ccccc2)C(=O)C1=O [b, (6R, 7S) 7-[(R)-2-phenyl-2-(4-ethyl-2,3-dioxopiperadinylcarbonylamino)-acetamido]-3-chloro-1-azabicyclo[4,2,0]oct-2-en-8-on-2-carboxylic acid] | 3.12 (≈ 6.02 µM) | 1.56 (≈ 3.01 µM) | 3.12 (≈ 6.02 µM) | 12.5 (≈ 24.1 µM) | 3.12 (≈ 6.02 µM) | 1.56 (≈ 3.01 µM) | 1.56 (≈ 3.01 µM) | 3.12 (≈ 6.02 µM) | 0.4 (≈ 0.772 µM) | ≤ 0.05 | 25 (≈ 48.3 µM) | 0.1 (≈ 0.193 µM) | 3.12 (≈ 6.02 µM) |  |
| N[C@@H](C(=O)N[C@@H]1C(=O)N2C(C(=O)O)=C(Cl)CC[C@H]12)c1ccc(O)cc1 [e, (6R, 7S) 7-(R)-p-hydroxyphenyl-glycinamido-3-chloro-1-azabicyclo[4,2,0]oct-2-en-8-on-2-carboxylic acid] | 1.56 (≈ 4.26 µM) | 3.12 (≈ 8.53 µM) | > 100 | 12.5 (≈ 34.2 µM) | 6.25 (≈ 17.1 µM) | 1.56 (≈ 4.26 µM) | 1.56 (≈ 4.26 µM) | 100 (≈ 273 µM) | 0.4 (≈ 1.09 µM) | 100 (≈ 273 µM) | 100 (≈ 273 µM) | 0.78 (≈ 2.13 µM) | 1.56 (≈ 4.26 µM) |  |
| CC1=C(C(=O)O)N2C(=O)[C@@H](NC(=O)[C@H](N)c3ccccc3)[C@H]2SC1 [f, Cephalexin, reference compound] |  |  |  |  |  |  |  |  |  |  |  |  |  | MIC ([2]; Escherichia coli, pH 7.2, read-out: Minimum Inhibitory Concentration): 12.5 µg/mL (≈ 36 µM); MIC ([4]; KY4298, pH 7.2, read-out: Minimum Inhibitory Concentration): > 100 µg/mL; MIC ([5]; Klebsiella pneumoniae, Y60, pH 7.2, read-out: Minimum Inhibitory Concentration): 50 µg/mL (≈ 144 µM); MIC ([6]; Serratia marcescens, T55, pH 7.2, read-out: Minimum Inhibitory Concentration): 50 µg/mL (≈ 144 µM); MIC ([9]; KY4289, pH 7.2, read-out: Minimum Inhibitory Concentration): > 100 µg/mL; MIC ([10]; Staphylococcus aureus, 209P, pH 7.2, read-out: Minimum Inhibitory Concentration): 0.2 µg/mL (≈ 0.576 µM); MIC ([12]; Pseudomonas putida, F264, pH 7.2, read-out: Minimum Inhibitory Concentration): > 100 µg/mL; MIC ([14]; Escherichia coli, NIHJC2, pH 7.2, read-out: Minimum Inhibitory Concentration): 12.5 µg/mL (≈ 36 µM) |
